The values that follow are results of earlier work, collected in patent publication EP4437048B1, “ENERGY CURABLE INK, COATING AND PRIMER COMPOSITIONS CONTAINING HIGHLY ALKOXYLATED GLYCEROL ACRYLATES FOR RETORT PACKAGING APPLICATIONS” (Sun Chemical B.V., priority 2022, dated 2024).

The conditions of the series: specific migration limit of the acrylate (Table 7).

Regarding `C=CC(=O)OCC(CC)(COCC(CC)(COC(=O)C=C)COC(=O)C=C)COC(=O)C=C` [Di-TMPTA], the SML was 10 ppb.
